US20180251483A1, “THIOCYANATE SALTS FOR ANTI-INFLAMMATION” (National Jewish Health, priority 2015, published 2018)

Assays:
[1] = Catalase activity: H2O2 consumption followed with a hydrogen peroxide selective electrode; assay type: biochemical
Method: FIG. 4 is a line graph showing effects of 1 mM NaSCN on the consumption of H2O2 by 10150-Cl at a fixed concentration of 12.5 μM and various H2O2 concentrations. Legend: Cmpd 10150-Cl (circles); Cmpd 10150-Cl+SCN (1 mM) (triangles).
To test whether SCN was acting as a competing substrate in the catalase activity one examined the change in 10150-Cl catalase activity by following the disappearance of H2O2 over time with a H2O2 selective electrode in the presence or absence of 1 mM NaSCN.
Experimental Conditions: Effects of 1 mM NaSCN on the consumption of H2O2 by 10150-Cl was investigated at a fixed concentration of 12.5 μM and various H2O2 concentrations. H2O2 consumption was followed over time with a hydrogen peroxide selective electrode (HPO) using a free radical analyzer (WPI). Changes in pA were converted to H2O2 using a 5 point H2O2 standard curve. The data was fitted as a linear curve using Prizm software. The rate constant for 10150-Cl was 0.09±0.004 min^−1 and in the presence of 1 mM NaSCN was decreased to 0.02±0.004 min^−1.

rat brain homogenates = assay: Iron/ascorbate-initiated lipid peroxidation of rat brain homogenates, TBARS assay; assay type: biochemical; details: comparison of the two salts
Method: Legend: Cmpd 10150-Cl (circles); Cmpd 10150-SCN (boxes).
The ability of the salts of the invention to inhibit lipid peroxidation was assessed as described by Ohkawa et al. (Anal. Biochem. 95:351 (1979)) and Yue et al. (J. Pharmacol. Exp. Ther. 263:92 (1992)). Iron and ascorbate can be used to initiate lipid peroxidation in tissue homogenates and the formation of thiobarbituric acid reactive species (TBARS) measured. Lipid peroxidation causes cell damage by radicals, which destroys lipids in cell membranes resulting in oxidative and inflammatory injury.
Both the chloride and thiocyanate salts of 10150 have similar lipid peroxide inhibition. Lipid peroxidation of rat brain homogenates was initiated with iron/ascorbate in the presence or absence of various concentrations of 10150-Cl or 10150-SCN. Lipid peroxidation was quantified using the TBARS assay with malondialdehyde standards. The data was normalized and curve fitted to determine the inhibitory concentrations that decreased lipid peroxidation by one-half (IC50).

[2] = test system: Human bronchial epithelial cells (HBE); assay: Hypochlorite-induced injury of human bronchial epithelial cells, MTT viability assay; assay type: cell-based; details: 250 μM HOCl for 30 minutes, 10 μM compound, MTT 24 hours post exposure, compared to 10150-Cl or NaSCN
Method: Bins (left to right): PBS (phosphate buffered saline); 250 uM HOCl; 250 uM HOCl+10 uM 10150-Cl; 250 uM HOCL+10 uM 10150-SCN; 250 uM HOCL+10 uM NaSCN.
Human bronchial epithelial cells (HBE) were exposed to 250 μM of hypochlorite (HOCl) for 30 minutes in the presence or absence of 10 μM of 10150-Cl, 10150-SCN, or NaSCN and cell injury was assessed 24 hours post HOCl exposure using the MTT viability assay.

[3] = Oxygen formation from H2O2 followed with an oxygen selective electrode (catalase to haloperoxidase conversion); assay type: biochemical
Method: FIG. 5 is a bar graph showing the inhibition of oxygen formation by 10150-Cl in the presence of hydrogen peroxide and thiocyanate. Bins (left to right); 25 uM Cmpd 10150; 50 uM Cmpd 10150. Legend: control (open); SCN 1 mM (closed).
It was examined whether SCN was being utilized as a substrate in a peroxidase reaction by looking at the inhibition of oxygen formation. If 10150-Cl was utilizing SCN along with H2O2, then no oxygen would be generated (see Eq 2).
To examine the rate of oxygen formation in the presence of 10150-Cl, H2O2 in the presence or absence of NaSCN, one utilized an oxygen selective electrode with a free radical analyzer (WPI). Changes in pA were converted to O2 using the difference of the O2 concentration in a saturated solution minus that of the solution made anaerobic by the addition of dithionite.
Experimental Conditions: Conversion of catalase activity to haloperoxidase activity of 10150-Cl with the addition of thiocyanate (SCN). Oxygen formation was followed with an oxygen selective electrode in a reaction mixture containing 10150 at either 25 or 50 μM and 1 mM H2O2 in the presence or absence of 1 mM SCN.

[4] = stated as known; cited from earlier work

Compound	catalase activity ([1]; comparison of the 10150-Cl and SCN salts)	IC50 of lipid peroxidation (TBARS formation) (rat brain homogenates)	protection against hypochlorite-mediated epithelial cell injury [2]	rate constant of H2O2 consumption in the presence of 1 mM NaSCN ([1]; 12.5 μM compound, various H2O2 concentrations, 1 mM NaSCN)	rate constant of H2O2 consumption ([1]; 12.5 μM compound, various H2O2 concentrations, absence of NaSCN)	oxygen formation on addition of SCN ([3]; 10150 at 25 or 50 μM, 1 mM H2O2, presence vs absence of 1 mM SCN)	haloperoxidase activity ([3]; thiocyanate as substrate, generating HOSCN)	catalase activity (dismutation of hydrogen peroxide into oxygen and water) [4]
[5,10,15,20 tetrakis(1,3-diethylimidazolium-2-yl)porphyrinato] manganese (III) pentathiocyanate [10150-SCN]	lower catalase activity than 10150-Cl salt	not statistically different	synergistic effects	–	–	–	–	–
CCN1C=CN(CC)C1=C1C2=NC(=C(c3n(CC)cc[n+]3CC)C3=NC(=C(c4n(CC)cc[n+]4CC)c4ccc([n-]4)C(c4n(CC)cc[n+]4CC)=C4C=CC1=N4)C=C3)C=C2.[Cl-].[Cl-].[Cl-].[Cl-].[Cl-].[Mn+3] [10150-Cl, [5,10,15,20 tetrakis(1,3-diethylmidazolium-2-yl)porphyrinato] manganese (III) pentachloride]	–	not statistically different	–	0.02 ± 0.004 min⁻¹	0.09 ± 0.004 min⁻¹	dramatically inhibited the formation of oxygen	has haloperoxidase activity	known to possess catalase activity
